Experiments:
Type in all cases: cell-based
alpha2C receptor = target: T1, alpha2C receptor (Homo sapiens, UniProt P18825); experiment: RSAT assay (Receptor Selection and Amplification Technology), alpha2C; conditions: maximal effect relative to standard full agonist brimonidine (UK14304); read-out: Alpha 2C intrinsic activity (IA), in parentheses
T1 construct: expressed in transfected cells; host or cells: NIH-3T3 cells
T1 sequence (P18825 1-462): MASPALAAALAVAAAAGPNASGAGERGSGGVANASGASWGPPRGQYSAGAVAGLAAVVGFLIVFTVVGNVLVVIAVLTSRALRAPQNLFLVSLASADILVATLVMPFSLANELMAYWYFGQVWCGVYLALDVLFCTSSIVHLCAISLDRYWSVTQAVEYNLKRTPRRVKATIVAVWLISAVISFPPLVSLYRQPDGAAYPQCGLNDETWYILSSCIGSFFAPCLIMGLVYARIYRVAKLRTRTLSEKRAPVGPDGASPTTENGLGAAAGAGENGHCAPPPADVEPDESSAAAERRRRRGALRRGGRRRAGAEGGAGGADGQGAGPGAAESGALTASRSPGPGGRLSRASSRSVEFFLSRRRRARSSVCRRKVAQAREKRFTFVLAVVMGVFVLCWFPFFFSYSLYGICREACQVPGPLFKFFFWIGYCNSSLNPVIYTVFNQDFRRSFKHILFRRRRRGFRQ
Protocol: (§1) Receptor Selection and Amplification Technology (RSAT) Assay
(§2) The RSAT assay measures a receptor-mediated loss of contact inhibition that results in selective proliferation of receptor-containing cells in a mixed population of confluent cells. The increase in cell number is assessed with an appropriate transfected marker gene such as β-galactosidase, the activity of which can be easily measured in a 96-well format. Receptors that activate the G protein, Gq, elicit this response. Alpha2 receptors, which normally couple to Gi, activate the RSAT response when coexpressed with a hybrid Gq protein that has a Gi receptor recognition domain, called Gq/i5.
(§3) NIH-3T3 cells are plated at a density of 2×10^6 cells in 15 cm dishes and maintained in Dulbecco's modified Eagle's medium supplemented with 10% calf serum. […] After washing with phosphate-buffered saline, β-galactosidase enzyme activity is determined by adding 200 μl of the chromogenic substrate (consisting of 3.5 mM o-nitrophenyl-β-D-galactopyranoside and 0.5% nonidet P-40 in phosphate buffered saline), incubating overnight at 30° C. and measuring optical density at 420 nm. The absorbance is a measure of enzyme activity, which depends on cell number and reflects a receptor-mediated cell proliferation. […]

alpha2A receptor = target: T2, alpha2A receptor (Homo sapiens, UniProt P08913); experiment: RSAT assay (Receptor Selection and Amplification Technology), alpha2A; conditions: read-out: Alpha 2A intrinsic activity (IA), in parentheses
T2 construct: expressed in transfected cells; host or cells: NIH-3T3 cells
T2 sequence (P08913 1-465): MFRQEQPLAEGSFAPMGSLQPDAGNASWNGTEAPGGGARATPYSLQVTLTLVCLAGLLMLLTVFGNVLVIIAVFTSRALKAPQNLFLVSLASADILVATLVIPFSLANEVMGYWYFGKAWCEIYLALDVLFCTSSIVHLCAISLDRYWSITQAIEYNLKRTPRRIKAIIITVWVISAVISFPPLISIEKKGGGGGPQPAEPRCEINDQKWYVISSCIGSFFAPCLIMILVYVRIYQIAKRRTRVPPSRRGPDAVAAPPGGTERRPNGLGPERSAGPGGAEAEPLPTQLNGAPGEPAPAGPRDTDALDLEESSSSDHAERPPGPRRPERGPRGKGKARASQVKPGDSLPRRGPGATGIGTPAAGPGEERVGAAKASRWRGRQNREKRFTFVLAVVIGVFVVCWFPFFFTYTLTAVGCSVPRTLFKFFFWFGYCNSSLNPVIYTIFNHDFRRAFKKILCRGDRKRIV
Protocol: as §1, §2, §3

alpha2B receptor = target: T3, alpha2B receptor (Homo sapiens, UniProt P18089); experiment: RSAT assay (Receptor Selection and Amplification Technology), alpha2B; conditions: for EC50: RSAT, NIH-3T3 cells cotransfected with receptor and Gq/i5, ND = not determinable at concentrations less than 10 micromolar, read-out: Alpha 2B EC50; for Emax: maximal effect relative to standard full agonist brimonidine (UK14304), read-out: Alpha 2B intrinsic activity (IA), in parentheses
T3 construct: expressed in transfected cells; host or cells: NIH-3T3 cells
T3 sequence (P18089 1-450): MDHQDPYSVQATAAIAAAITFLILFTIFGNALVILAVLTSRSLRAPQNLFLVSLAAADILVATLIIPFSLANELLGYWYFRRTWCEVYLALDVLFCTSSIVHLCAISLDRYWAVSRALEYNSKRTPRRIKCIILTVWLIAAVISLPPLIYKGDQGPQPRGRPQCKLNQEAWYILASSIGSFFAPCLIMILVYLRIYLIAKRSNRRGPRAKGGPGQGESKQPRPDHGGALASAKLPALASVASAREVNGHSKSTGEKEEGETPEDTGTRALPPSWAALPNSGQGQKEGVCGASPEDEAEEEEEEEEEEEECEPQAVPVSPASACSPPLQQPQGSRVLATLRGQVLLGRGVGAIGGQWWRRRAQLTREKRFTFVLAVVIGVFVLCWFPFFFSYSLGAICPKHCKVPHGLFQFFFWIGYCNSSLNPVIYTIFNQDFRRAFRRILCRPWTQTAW
Protocol: as §1, §2
NIH-3T3 cells are plated at a density of 2×10^6 cells in 15 cm dishes and maintained in Dulbecco's modified Eagle's medium supplemented with 10% calf serum. One day later, cells are cotransfected by calcium phosphate precipitation with mammalian expression plasmids encoding p-SV-β-galactosidase (5-10 μg), receptor (1-2 μg) and G protein (1-2 μg). 40 μg salmon sperm DNA may also be included in the transfection mixture. Fresh media is added on the following day and 1-2 days later, cells are harvested and frozen in 50 assay aliquots. Cells are thawed and 100 μl added to 100 μl aliquots of various concentrations of drugs in triplicate in 96-well dishes. Incubations continue 72-96 hr at 37° C. After washing with phosphate-buffered saline, β-galactosidase enzyme activity is determined by adding 200 μl of the chromogenic substrate (consisting of 3.5 mM o-nitrophenyl-β-D-galactopyranoside and 0.5% nonidet P-40 in phosphate buffered saline), incubating overnight at 30° C. and measuring optical density at 420 nm. The absorbance is a measure of enzyme activity, which depends on cell number and reflects a receptor-mediated cell proliferation. The efficacy or intrinsic activity is calculated as a ratio of the maximal effect of the drug to the maximal effect of a standard full agonist for each receptor subtype. Brimonidine, also called UK14304, the chemical structure of which is shown below, is used as the standard agonist for the alpha2A, alpha2B and alpha2C receptors. The EC50 is the concentration at which the drug effect is half of its maximal effect.
EC50 values are nanomolar. ND stands for “not determinable” at concentrations less than 10 micromolar. IA stands for “intrinsic activity.”

| SMILES | Emax (alpha2C receptor) | Emax (alpha2A receptor) | EC50 (alpha2B receptor) | Emax (alpha2B receptor) |
| --- | --- | --- | --- | --- |
| c1cnc2c(c1)CCCC2NC1=NCCO1 (centres unmarked) | 22% | 3% | 545 nM | 67% |
| c1cnc2c(n1)CCCC2NC1=NCCO1 (centres unmarked) | 27% | 16% | 271 nM | 86% |

From US8486969B2, “Therapeutic compounds” (Allergan, Inc., priority 2007, dated 2013)
